Measurements reported in PubChem BioAssay (NCI).
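At the GI50, growth is halved. TGI: concentration producing complete growth inhibition.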

Tests used:
Test in all cases: growth of human tumour cells (NCI), 384-well format
UACC-257 melanoma = system: UACC-257 melanoma
MCF7 breast = system: MCF7 breast
CAKI-1 renal = system: CAKI-1 renal
NCI-H322M lung = system: NCI-H322M lung
MALME-3M melanoma = system: MALME-3M melanoma
OVCAR-8 ovarian = system: OVCAR-8 ovarian
NCI-H522 lung = system: NCI-H522 lung
MDA-MB-435 melanoma = system: MDA-MB-435 melanoma
A549 NSCLC = system: A549 NSCLC
HOP-62 NSCLC = system: HOP-62 NSCLC
786-0 renal = system: 786-0 renal
LOX IMVI melanoma = system: LOX IMVI melanoma
T-47D breast = system: T-47D breast
DU-145 prostate = system: DU-145 prostate
SF-268 CNS = system: SF-268 CNS
SK-MEL-28 melanoma = system: SK-MEL-28 melanoma
NCI-H23 lung = system: NCI-H23 lung
COLO 205 colon = system: COLO 205 colon
CCRF-CEM leukemia = system: CCRF-CEM leukemia
OVCAR-3 ovarian = system: OVCAR-3 ovarian
HS 578T breast = system: HS 578T breast
BT-549 breast = system: BT-549 breast
NCI-H226 lung = system: NCI-H226 lung
M14 melanoma = system: M14 melanoma
SF-539 CNS = system: SF-539 CNS
HOP-92 NSCLC = system: HOP-92 NSCLC
PC-3 prostate = system: PC-3 prostate
HCC-2998 colon = system: HCC-2998 colon
OVCAR-5 ovarian = system: OVCAR-5 ovarian
IGROV1 ovarian = system: IGROV1 ovarian
RXF 393 renal = system: RXF 393 renal
HCT-15 colon = system: HCT-15 colon
HT29 colon = system: HT29 colon
NCI-H460 NSCLC = system: NCI-H460 NSCLC
HL-60(TB) leukemia = system: HL-60(TB) leukemia
UACC-62 melanoma = system: UACC-62 melanoma
NCI/ADR-RES ovarian = system: NCI/ADR-RES ovarian
K-562 leukemia = system: K-562 leukemia
A498 renal = system: A498 renal
OVCAR-4 ovarian = system: OVCAR-4 ovarian
HCT-116 colon = system: HCT-116 colon
KM12 colon = system: KM12 colon
SNB-19 CNS = system: SNB-19 CNS
ACHN renal = system: ACHN renal
SR leukemia = system: SR leukemia
TK-10 renal = system: TK-10 renal
SF-295 CNS = system: SF-295 CNS

Compound: CC(C)(O)c1cc(Nc2cc(Oc3cn(C4CC4)nc3C3CCOCC3)ccn2)ccn1
- GI50 (UACC-257 melanoma): 45 µM
- TGI (UACC-257 melanoma): > 100 µM
- GI50 (MCF7 breast): 29.9 µM
- TGI (MCF7 breast): > 100 µM
- GI50 (CAKI-1 renal): 68.1 µM
- TGI (CAKI-1 renal): > 100 µM
- GI50 (NCI-H322M lung): > 100 µM
- TGI (NCI-H322M lung): > 100 µM
- GI50 (MALME-3M melanoma): > 77.1 µM
- TGI (MALME-3M melanoma): > 100 µM
- GI50 (OVCAR-8 ovarian): > 100 µM
- TGI (OVCAR-8 ovarian): > 100 µM
- GI50 (NCI-H522 lung): > 68.6 µM
- TGI (NCI-H522 lung): > 100 µM
- GI50 (MDA-MB-435 melanoma): > 100 µM
- TGI (MDA-MB-435 melanoma): > 100 µM
- GI50 (A549 NSCLC): 89.6 µM
- TGI (A549 NSCLC): > 100 µM
- GI50 (HOP-62 NSCLC): > 100 µM
- TGI (HOP-62 NSCLC): > 100 µM
- GI50 ([…]-0 renal): > 72.6 µM
- TGI (786-0 renal): > 100 µM
- GI50 (LOX IMVI melanoma): 24.9 µM
- TGI (LOX IMVI melanoma): 84.9 µM
- GI50 (T-47D breast): 32.6 µM
- TGI (T-47D breast): > 100 µM
- GI50 (DU-145 prostate): > 100 µM
- TGI (DU-145 prostate): > 100 µM
- GI50 (SF-268 CNS): > 100 µM
- TGI (SF-268 CNS): > 100 µM
- GI50 (SK-MEL-28 melanoma): > 80.5 µM
- TGI (SK-MEL-28 melanoma): > 100 µM
- GI50 (NCI-H23 lung): 23.1 µM
- TGI (NCI-H23 lung): > 100 µM
- GI50 (COLO 205 colon): 63.2 µM
- TGI (COLO 205 colon): > 100 µM
- GI50 (CCRF-CEM leukemia): 46.7 µM
- TGI (CCRF-CEM leukemia): > 100 µM
- GI50 (OVCAR-3 ovarian): 52.8 µM
- TGI (OVCAR-3 ovarian): > 100 µM
- GI50 (HS 578T breast): 37.7 µM
- TGI (HS 578T breast): > 100 µM
- GI50 (BT-549 breast): 38.7 µM
- TGI (BT-549 breast): > 100 µM
- GI50 (NCI-H226 lung): > 93.3 µM
- TGI (NCI-H226 lung): > 100 µM
- GI50 (M14 melanoma): > 100 µM
- TGI (M14 melanoma): > 100 µM
- GI50 (SF-539 CNS): > 100 µM
- TGI (SF-539 CNS): > 100 µM
- GI50 (HOP-92 NSCLC): 50.7 µM
- TGI (HOP-92 NSCLC): > 100 µM
- GI50 (PC-3 prostate): 76.1 µM
- TGI (PC-3 prostate): > 100 µM
- GI50 (HCC-2998 colon): > 100 µM
- TGI (HCC-2998 colon): > 100 µM
- GI50 (OVCAR-5 ovarian): > 100 µM
- TGI (OVCAR-5 ovarian): > 100 µM
- GI50 (IGROV1 ovarian): > 100 µM
- TGI (IGROV1 ovarian): > 100 µM
- GI50 (RXF 393 renal): 43.5 µM
- TGI (RXF 393 renal): > 100 µM
- GI50 (HCT-15 colon): > 100 µM
- TGI (HCT-15 colon): > 100 µM
- GI50 (HT29 colon): 54.1 µM
- TGI (HT29 colon): > 100 µM
- GI50 (NCI-H460 NSCLC): 38.8 µM
- TGI (NCI-H460 NSCLC): > 100 µM
- GI50 (HL-60(TB) leukemia): 15.5 µM
- TGI (HL-60(TB) leukemia): 29.1 µM
- GI50 (UACC-62 melanoma): 52.1 µM
- TGI (UACC-62 melanoma): > 100 µM
- GI50 (NCI/ADR-RES ovarian): > 100 µM
- TGI (NCI/ADR-RES ovarian): > 100 µM
- GI50 (K-562 leukemia): 26.3 µM
- TGI (K-562 leukemia): > 100 µM
- GI50 (A498 renal): 66.8 µM
- TGI (A498 renal): > 100 µM
- GI50 (OVCAR-4 ovarian): > 100 µM
- TGI (OVCAR-4 ovarian): > 100 µM
- GI50 (HCT-116 colon): 46.6 µM
- TGI (HCT-116 colon): > 100 µM
- GI50 (KM12 colon): 97.1 µM
- TGI (KM12 colon): > 100 µM
- GI50 (SNB-19 CNS): > 100 µM
- TGI (SNB-19 CNS): > 100 µM
- GI50 (ACHN renal): > 100 µM
- TGI (ACHN renal): > 100 µM
- GI50 (SR leukemia): 24.8 µM
- TGI (SR leukemia): > 75.9 µM
- GI50 (TK-10 renal): 67.2 µM
- TGI (TK-10 renal): > 100 µM
- GI50 (SF-295 CNS): > 90 µM
- TGI (SF-295 CNS): > 100 µM
